Reference: ChEMBL document CHEMBL1154241, “A QSAR study on relationship between structure of sulfonamides and their carbonic anhydrase inhibitory activity using the eigenvalue (EVA) method” (Eur J Med Chem, 2009)

What follows are compounds tested against Carbonic anhydrase 2 (Homo sapiens) (UniProt P00918).
Description: Inhibition of carbonic anhydrase 2 assessed as inhibition of carbon dioxide hydration
`CS(=O)(=O)/N=C/C1=C(O)CCC=C1` was tested, and the logKi was 1.6. `NS(=O)(=O)c1ccc(C/N=C/c2ccccc2O)cc1` gave a logKi of 2.11. `NS(=O)(=O)c1ccc(C/N=C/c2ccc([N+](=O)[O-])cc2)cc1` (stereo in doubt; 45) showed a logKi of 1.3. `CC(=O)Nc1ccc(/C=N/Cc2ccc(S(N)(=O)=O)cc2)cc1` showed a logKi of 2.04. With `NS(=O)(=O)c1ccc(C/N=C/c2ccc([N+](=O)[O-])cc2)cc1` (stereo in doubt; 60) the logKi was 2.15. `NS(=O)(=O)c1ccc(/N=C/C2=C(Cl)CCC=C2)cc1` showed a logKi of 2.46. `COc1cc(/C=N/c2ccc(S(N)(=O)=O)cc2)ccc1C(C)=O` was tested, and the logKi was 2. `CC(=O)Nc1ccc(/C=N/c2ccc(S(N)(=O)=O)cc2)cc1` showed a logKi of 2.04. Compound `CS(=O)(=O)c1ccc(CC/N=C/c2ccccc2Cl)cc1` has a logKi of 2.32. Compound `NS(=O)(=O)c1ccc(C/N=C/c2ccccc2[N+](=O)[O-])cc1` has a logKi of 2.48. With `COc1ccc(/C=N/Cc2ccc(S(N)(=O)=O)cc2)cc1` the logKi was 2.08. Compound `NS(=O)(=O)c1ccc(C/N=C/c2ccccc2Cl)cc1` has a logKi of 1.95. In the case of `NS(=O)(=O)c1ccc(/N=C/C=C/c2ccccc2)cc1`, the logKi is reported as 1.7. Compound `NS(=O)(=O)c1ccc(/N=C/c2ccc([N+](=O)[O-])cc2)cc1` has a logKi of 1.7. In the case of `CC(=O)Nc1ccc(/C=N/CCc2ccc(S(C)(=O)=O)cc2)cc1`, the logKi is reported as 1.6. Work on `COc1ccccc1/C=N/c1ccc(S(N)(=O)=O)cc1` yielded a logKi of 2.23. Compound `NS(=O)(=O)c1ccc(/N=C/c2cccc([N+](=O)[O-])c2)cc1` has a logKi of 2.25. In the case of `NS(=O)(=O)c1ccc(/N=C/c2ccc(Cl)cc2)cc1`, the logKi is reported as 2.45.
